Reference: patent EP2340832A1, “Morphinan-6-one compounds for the treatment or prevention of neurodegenerative diseases” (Universität Innsbruck, priority 2009, dated 2011)

Target: µ opioid receptor (Rattus norvegicus, UniProt P33535)
Experiment: [35S]GTPγS functional assay, rat brain membranes, µ receptor
Assay type: biochemical, Sprague-Dawley rat
Set-up: from tissue; host or cells: Sprague-Dawley rat brain (without cerebella) membranes
Details: read-out: Emax (% of basal activity)
Experimental: Membrane fractions were prepared from Sprague-Dawley rat or guinea pig brains as described above. To determine binding of [^35S]GTPyS, rat or guinea pig brain membranes (10 µg of protein) were incubated for 60 min at 30 °C in Tris-EGTA buffer (50 mM Tris-HCl buffer, 3 mM MgCl2, 1 mM EGTA, […], pH 7.4) containing 30 µM GDP, 0.05 nM [^35S]GTPyS and appropriate concentrations of the respective compounds according to the present invention in a final volume of 1 ml. The reaction was terminated by vacuum filtration through Whatman GF/B glass fibre filters. Filters were washed three times with ice-cold 50 mM Tris-HCI buffer (pH 7.4) and the bound radioactivity was measured by liquid scintillation counting (Beckman Coulter™ LS6500). Basal activity was determined by subtracting the non-specific binding (measured in the presence of 100 µM unlabelled GTPyS) from the total binding (measured in the absence of the compound).
Stimulation produced by the compound is given as percentage of the basal activity (given as 100%). Functional data, EC50 (nM; half maximal effective concentration) and maximal stimulation Emax (% stimulation over basal level; maximal effective concentration), were calculated by using nonlinear regression analysis and sigmoidal curve fitting GraphPad Prism (San Diego, CA, USA) program. […]

Sequence of µ opioid receptor (P33535 whole entry): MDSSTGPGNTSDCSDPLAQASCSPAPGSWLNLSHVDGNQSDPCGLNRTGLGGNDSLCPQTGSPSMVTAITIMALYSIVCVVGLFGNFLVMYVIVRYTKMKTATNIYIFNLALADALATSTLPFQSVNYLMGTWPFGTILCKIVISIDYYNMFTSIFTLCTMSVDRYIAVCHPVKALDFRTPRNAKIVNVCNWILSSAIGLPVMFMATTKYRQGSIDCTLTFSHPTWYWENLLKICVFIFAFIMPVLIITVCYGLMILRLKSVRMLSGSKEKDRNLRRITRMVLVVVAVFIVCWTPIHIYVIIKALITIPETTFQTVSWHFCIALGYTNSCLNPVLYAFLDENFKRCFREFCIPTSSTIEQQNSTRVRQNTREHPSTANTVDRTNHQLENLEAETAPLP

Compound: C[C@@H](NC(=O)[C@@H](N)Cc1ccc(O)cc1)C(=O)NCC(=O)N(C)[C@@H](Cc1ccccc1)C(=O)NCCO [DAMGO, [D-Ala^2, Me-Phe ^4, Gly-ol^5]enkephalin]
- Emax: 179 ± 5%
